Measured values reported in the NIST ThermoML archive (doi:10.1016/j.jct.2014.01.022).
Numbers after ± are expanded uncertainties.

Columns and labels:
[1] = refractive index (Na D-line) (dimensionless); conditions: 298.15 K; 101.33 kPa; Liquid; Standard Abbe refractometry
[2] = 298.15 K; 101.33 kPa; Liquid; Vibrating tube method

SMILES | refractive index [1] | mass density [2] [kg/m3]
CCCC[n+]1ccn(C)c1.O=S(=O)([N-]S(=O)(=O)C(F)(F)F)C(F)(F)F | 1.42706 ± 0.00031 | 1436.35 ± 0.22
CCCn1cc[n+](C)c1.O=S(=O)([N-]S(=O)(=O)C(F)(F)F)C(F)(F)F | 1.42526 ± 0.00033 | 1474.44 ± 0.33
c1ccccc1 [benzene] | 1.49774 ± 0.00037 | 873.57 ± 0.24
Cc1ccccc1 [toluene] | 1.49399 ± 0.00031 | 862.17 ± 0.13

Second part, the compound after the results:

refractive index [1] | mass density [2] [kg/m3] | SMILES
1.49304 ± 0.00037 | 862.51 ± 0.24 | CCc1ccccc1 [ethylbenzene]
1.40326 ± 0.00031 | 713.9 ± 0.17 | CCCCCCCCC [nonane]
1.39519 ± 0.00037 | 698.6 ± 0.25 | CCCCCCCC [octane]
